Values joined by “and” are separate entries in the source; they are usually repeats but may differ in a detail not shown here. Equal entries are not always repeated.
melting point | SMILES
183 °C | CN(C)[C@@H]1C(O)=C(C(N)=O)C(=O)[C@@]2(O)C(O)=C3C(=O)c4c(O)cccc4[C@@](C)(O)[C@H]3[C@H](O)[C@@H]12 [Oxytetracycline]
83 °C | N#CCc1ccc2ccccc2c1 [2-naphthylacetonitrile]
-45 °C | CCCCCC(O)CC (stereo not given) [3-octanol] [listing 1 of 2 here]
105 °C | Oc1ccccc1O [Pyrocatechol]
10 °C | OCc1cccc(Oc2ccccc2)c1 [(3-Phenoxyphenyl)methanol]
249 °C | O=C(O)c1ccc2cc(O)ccc2c1 [6-hydroxy-2-naphthoic acid]
276 °C | C[C@]12C=CC(=O)C=C1CC[C@H]1[C@@H]3C[C@@H](O)[C@](O)(C(=O)CO)[C@@]3(C)C[C@H](O)[C@@]12F [Triamcinolone]
330 °C | CC1=NS(=O)(=O)c2cc(Cl)ccc2N1 [Diazoxide]
-45 °C | CCCCCC(O)CC (stereo not given) [3-octanol] [listing 2 of 2 here]
-162 °C | C=CCCC [1-pentene]
188 °C | CC(=O)c1ccc(S(=O)(=O)NC(=O)NC2CCCCC2)cc1 [acetohexamide]
31 °C | CCCCCCC(O)CO (stereo not given) [1,2-octanediol]
158 °C | O=C(O)c1ccccc1O [Salicyclic acid]
142 °C | CNC[C@H](O)c1cccc(O)c1 [Phenylephrine]
-47 °C | CC(=O)CC(C)(C)O [4-hydroxy-4-methyl-2-pentanone]
82 °C | O=C1Cc2cccc(Br)c21 [5-bromobicyclo[4.2.0]octa-1,3,5-trien-7-one]
136 °C | CC(=O)Nc1ccc(Br)cc1OC(F)(F)F [4'-bromo-2'-(trifluoromethoxy)acetanilide]
-91 °C | CCCCCCC [Heptane]
65 °C | C/C(=C(/C)c1ccccc1)c1ccccc1 [[(1E)-1-Methyl-2-phenyl-1-propenyl]benzene]
203 °C | O=P(O)(O)CP(=O)(O)O [methylenediphosphonic acid]
87 °C | CC(C)(C)OC(=O)N[C@@H](Cc1ccccc1)C(=O)O [boc-phenylalanine]

melting point | SMILES
226 °C | Cc1cc[n+]([O-])cc1C(=O)NN [4-methylpyridine-3-carbohydrazide 1-oxide]
203 °C | CC(CCC(=O)O)C1CCC2C3C(O)CC4CC(O)CCC4(C)C3CCC12C (stereo not given) [ursodiol]
160 °C | Cc1ncc([N+](=O)[O-])n1CCO [Metronidazole]
103 °C | CCCCCCCCOc1ccc(C(=O)O)cc1 [4-n-octyloxybenzoic acid]
86 °C | COc1ccc(I)cc1N [5-iodo-2-methoxyaniline]
94 °C | O=C(N[C@H](CO)Cc1ccccc1)OCc1ccccc1 [N-benzyloxycarbonyl-l-phenylalaninol]
144 °C | CC(=O)c1cc(O)cc(O)c1 [3',5'-dihydroxyacetophenone]
26 °C | CCCCCCCCCCCCO [1-dodecanol]
134 °C | CC(=O)S[C@@H]1CC2=CC(=O)CC[C@]2(C)[C@H]2CC[C@@]3(C)[C@@H](CC[C@@]34CCC(=O)O4)[C@H]12 [Spironolactone]
186 °C | O=C(O)CCC(=O)O [Succinic acid]
51 °C | COc1ccc(C=O)cn1 [6-methoxypyridine-3-carboxaldehyde]
-99 °C | CCCCCCl [1-chloropentane]
-3 °C | CC(=O)C(C)=O [Biacetyl]
55 °C | O=[N+]([O-])c1ccc(Oc2ccccc2)cc1 [4-nitrophenyl phenyl ether]
49 °C | CCCCCCCCCCCCCCCCCCCCCCC [Tricosane]
146 °C | Cc1cc(C)c(CSCc2c(C)cc(C)cc2C)c(C)c1 [1,1'-(sulfanediyldimethanediyl)bis(2,4,6-trimethylbenzene)]
77 °C | Cc1ccc(CS(=O)(=O)Cl)cc1 [alpha-p-xylenesulfonyl chloride]
60 °C | CC(CN1c2ccccc2Sc2ccccc21)N(C)C (stereo not given) [promethazine]
152 °C | C=Cc1ccccc1C(N)=O [o-vinylbenzamide]
198 °C | COc1ccc(-c2oc3c(OC)c(OC)ccc3c(=O)c2O)cc1 [3-hydroxy-4',7,8-trimethoxyflavone]
86 °C | CCB(O)O [ethylboronic acid]

melting point | SMILES
328 °C | Nc1cccc2c(=O)[nH][nH]c(=O)c12 [3-aminophthalhydrazide]
68 °C | CCOC(=O)c1ccccc1C#N [ethyl_o-cyanobenzoate]
62 °C | COC(=O)C(O)c1ccccc1[N+](=O)[O-] (stereo not given) [methyl hydroxy(2-nitrophenyl)acetate]
22.5 °C and 25 °C | C[C@H](O)CN [(2S)-1-amino-2-propanol]
-44 °C | C#CCCCCCCCC [1-decyne]
140 °C | CC1(C)CC(=O)C(=NNc2ccccc2[N+](=O)[O-])C(=O)C1
-80 °C | COC(=O)CC(C)=O [methyl acetoacetate]
70 °C | OCc1ccccc1Cl [2-chlorobenzyl alcohol]
128 °C | CC1=C(C)C(=O)C(C(CCCCCC(=O)O)c2ccccc2)=C(C)C1=O (stereo not given) [seratrodast]
61 °C | C1CCCCCCCCCCC1 [cyclododecane]
157 °C | O=C(O)c1cccc(Br)c1 [3-Bromobenzoic acid]
117 °C | OCC12CC3CC(CC(C3)C1)C2 [1-adamantanemethanol]
-95 °C | CCCOC(C)=O [propyl_acetate]
49 °C | CC(C)(C)C1CCC(=O)CC1 [4-tert-butylcyclohexanone]
105 °C | OCc1ccc(-c2ccccc2)cc1 [p-phenylbenzyl alcohol]
103 °C | CCOC(=O)Nc1cccc([N+](=O)[O-])c1[N+](=O)[O-] [ethyl (2,3-dinitrophenyl)carbamate]
146 °C | NS(=O)(=O)c1ccc(Cl)cc1 [4-chlorobenzenesulfonamide]
180 °C | Cc1ccc(C)c(B(O)O)c1 [2,5-dimethylbenzeneboronic acid]
-41 °C | SCCS [Ethane-1,2-dithiol]
200 °C | COc1ccccc1P(c1ccccc1OC)c1ccccc1OC [tris(2-methoxyphenyl)phosphine]
263 °C | O=Cc1ccc(B(O)O)cc1 [4-formylbenzeneboronic acid]

melting point | SMILES
128 °C | Cc1ccc(C)c(CC(=O)O)c1 [2,5-dimethylphenylacetic acid]
-62 °C | COC(=O)CC(=O)OC [dimethyl malonate]
-53 °C | CCCCCCCCC [N-nonane]
170 °C | CC/C(=C(/CC)c1ccc(O)cc1)c1ccc(O)cc1 [4,4'-(3E)-Hex-3-ene-3,4-diyldiphenol]
97 °C | Nc1ccccc1N1CCOCC1 [2-(4-morpholinyl)aniline]
133 °C | N#C/C(=C\c1ccc(Cl)cc1Cl)c1nc(-c2cccc3ccccc23)cs1
104 °C | CC(=O)c1cnn(-c2ccccc2)c1C [4-acetyl-5-methyl-1-phenyl-1h-pyrazole]
123 °C | Cc1ccc(C(=O)/C=C/c2ccc(-c3ccccc3)o2)o1
-131 °C | CC(C)S [2-propanethiol]
140 °C | O=C1CC(c2cccc(O)c2)Oc2ccccc21 (stereo not given) [3'-hydroxyflavanone]
255 °C | Nc1nc2c(ncn2COCCO)c(=O)[nH]1 [acyclovir]
112 °C | CCOC(C)=NOc1ccc([N+](=O)[O-])cc1[N+](=O)[O-] [ethyl n-(2,4-dinitrophenoxy)acetimidate]
106 °C | Oc1ccccc1O [catechol]
132 °C | O=C(O)CC(O)C(=O)O (racemic) [dl-malic acid]
206 °C | Cc1c(C(=O)O)cc([N+](=O)[O-])cc1[N+](=O)[O-] [2-Methyl-3,5-dinitrobenzoic acid]
153 °C | CCc1cnc(C(=O)O)c(C(=O)O)c1 [5-ethylpyridine-2,3-dicarboxylic acid]
199 °C | OCc1ccccc1O[C@@H]1O[C@H](CO)[C@@H](O)[C@H](O)[C@H]1O [2-(Hydroxymethyl)phenyl beta-D-glucopyranoside]
46 °C | CC(=O)c1ccc(Cl)s1 [2-acetyl-5-chlorothiophene]

SMILES | melting point
CC(=O)OC(C)=O [acetic anhydride] | -73 °C
C=CCC1(c2ccccc2)C(=O)NC(=O)NC1=O [phenallymal] | 156 °C
OC(c1ccc(Cl)cc1)(c1ccc(Cl)cc1)C(Cl)(Cl)Cl [2,2,2-Trichloro-1,1-bis(4-chlorophenyl)ethanol] | 78.5 °C
O=[PH](c1ccccc1)c1ccccc1 [diphenylphosphine oxide] | 54 °C
CCCCCCCCCCCC(=O)OOC(=O)CCCCCCCCCCC [Diundecylperoxyanhydride] | 56 °C
Cc1ccc(O)c(C)c1 [2,4-dimethylphenol] | 27 °C
CNC(=O)O/N=C(\C)SC [Methyl (1E)-N-[(methylcarbamoyl)oxy]ethanimidothioate] | 79 °C
CCOC(=O)c1ccccc1C(=O)OCC [diethyl phthalate] | -64 °C
ClC(Cl)=C(Cl)c1c(Cl)c(Cl)c(Cl)c(Cl)c1Cl [Octachlorostyrene] | 95 °C
CCC1(C2=CCCCCC2)C(=O)NC(=O)NC1=O [Heptabarbital] | 174 °C
O=[N+]([O-])c1ccc(CBr)cc1 [4-nitrobenzyl bromide] | 99 °C
CC(C)C1C(=O)NC(=O)NC1=O [5-isopropylbarbituric acid] | 215 °C
C=Cc1ccc(C#N)cc1 [p-cyanostyrene] | -15 °C
N[C@@H](CO)Cc1ccccc1 [D-phenylalaninol] | 92 °C
CC(C)(c1ccccc1)c1ccc(O)cc1 [4-cumylphenol] | 72 °C
Nc1ccc([N+](=O)[O-])cc1 [4-nitroaniline] | 148 °C
N#Cc1c2ccccc2cc2ccccc12 [anthracene-9-carbonitrile] | 177 °C
c1ccc2c(c1)cc1ccc3cccc4ccc2c1c34 [Benzo[a]pyrene] | 176 °C
CN(C)CCO [2-(Dimethylamino)ethanol] | -70 °C
